Target: Carbonic anhydrase 9 (Homo sapiens, UniProt Q16790)
Description: Inhibition of human recombinant carbonic anhydrase-9 catalytic domain by stopped-flow CO2 hydration assay

| Ki | SMILES |
| --- | --- |
| 57 nM | NS(=O)(=O)ONC(=O)OCc1ccccc1 |
| 85 nM | NOS(=O)(=O)NC1C=C[C@H](O)[C@@H](CO)O1 (mixture of isomers) |
| 90 nM | CC(=O)OC[C@H]1OC(NS(=O)(=O)ON)C=C[C@@H]1OC(C)=O (mixture of isomers) |
| 75 nM | CC(=O)OC[C@H]1OC(NS(=O)(=O)ON)C=C[C@H]1OC(C)=O (mixture of isomers) |
| 75 nM | CC(=O)O[C@H]1C=CC(NS(=O)(=O)ON)OC1 (mixture of isomers) |
| 86 nM | CC(=O)O[C@@H]1C=CC(NS(=O)(=O)ON)OC1 (mixture of isomers) |
| 86 nM | CC(=O)O[C@@H]1C=CC(NS(=O)(=O)ON)O[C@H]1C (mixture of isomers) |
| 61 nM | NOS(=O)(=O)NC1C=C[C@@H](O)[C@@H](CO)O1 (mixture of isomers) |
| 91 nM | NOS(=O)(=O)NC1C=C[C@H](O)CO1 (mixture of isomers) |
| 74 nM | NOS(=O)(=O)NC1C=C[C@@H](O)CO1 (mixture of isomers) |
| 61 nM | C[C@@H]1OC(NS(=O)(=O)ON)C=C[C@H]1O (mixture of isomers) |

| SMILES | Ki |
| --- | --- |
| NOS(=O)(=O)NC(=O)OCc1ccccc1 | 77 nM |
